“Also recorded” adds a separate entry of the source. Like-named read-outs stand apart in the source and are kept apart here.
How the values were obtained:
[1] = for product Ca++ × Pi in solution after incubation: 37° C., two days, control 29, prior to incubation 114.7
Method: A model system is used to evaluate the ability of the phosphonates to inhibit the formation of crystals in inorganic solutions. Three solutions are prepared according to Fleisch.
The pH is brought to 7.4 by means of potassium hydroxide. The concentration of Ca^++ was 6.7 mg%, a level similar to the calcium in blood which has been subjected to untrafiltration and the concentration of the inorganic phosphate Pi give a product Ca^++ ×Pi=80. The solution was analyzed for Ca^++ and Pi and was distributed in Erlenmeyer flasks 12 cc each. The flasks were divided in groups as follows:
and then they are incubated under stirring at 37° C. for two days.
At the end of incubation, the solutions are passed through "millipore filters" for the purpose of retaining the ctystals which are formed during the incubation; the filtrate then is analyzed for Ca^++ and Pi. The results are also reported in Table 2 as the product of Ca^++ x Pi in the solution at the end of the experiment.

[2] = in vivo; conditions: mouse, Swiss mice, read-out: DL50 (the source's name)
Method: For this study Swiss mice, both male and female, have been utilized: during the experiment, the animals are fed according to the method with Altromin in the form of tablets. For the oral and intraperitoneal administration, there are used 5% gum arabic solutions while saline solutions of pH 4 are used for the intravenous injections.
The preliminary values of DL50 are calculated according to a graphic method.

[3] = tested on: skull cells (lactate production); assay: cells; assay type: cell-based, Wistar rats
Method: (§1) Cellular culture: the cells are cultured according to the method described by Fast et al, (Biochem. J. 172, 97-107 (1978)). By way of summary, the skulls removed from Wistar rats, one day old, are digested with collagenase. The cells set free are placed on a plate with concentration of 200,000 cells per cc of medium in disks "clusters" suitable for culture, the plates having 24 wells of 1.6 cm in diameter containing 0.5 cc of medium. The cells are cultivated in the essential minimum medium containing 10% of foetal calf serum in an atmosphere of 5% CO2 at 37° up to the eighth day. The bisphosphonates are added on the first day up to the end of the experiment. The medium is changed on the first, fourth and seventh day.
On the seventh day, the medium is changed and the cells are incubated for 16 hours. The lactate produced during this period is measured in an extract in HClO4 of the medium using lactatodehydrogenase.

[4] = tested on: skull cells; assay: cells; assay type: cell-based, Wistar rats
Method: as §1
The cells are counted with a Coulter counter after they have been set free from the disks by digestion with a mixture of collagenase and trypsin.

[5] = tested on: bone reabsorption and mineralization (tibia, trabecular metaphysis); assay type: in vivo, Wistar rats; conditions: for effect on bone reabsorption, in words: rat, in vivo
Method: Groups of five Wistar rats of weight 180-200 grams are treated for a period of seven days with 0.1, 1.0 and 10 mg of P/kg of the following biphosphonic acids:
The animals kept as a control were administered the solvent with NaCl. All the treatments were carried out by the subcutaneous route. […] The animals were fed with Altromine 1314 containing 1.1 g/100 g P and 250 IU/100 g of vitamin D3. On the eighth day, the animals were killed and the tibia was removed and fixed in 50% ethanol. The tibiae were then dehydrated in increasing concentration of ethanol and allowed to soak in methylmethacrylate after the addition of Plastoid N. Frontal sections were removed and cut to a thickness of 70-80 μm and then the sections were submitted to microradiography. This procedure permitted to evaluate the density of the mineral in the trabecular metaphysis according to the method of Shenk et al., Calc. Tiss. Res. 11, 196-214, 1973).
One animal per group has been evaluated.

[6] = tested on: bone reabsorption (metaphyseal bone density); assay: Metaphyseal bone density / inhibition of bone reabsorption in rats treated for 7 days; assay type: in vivo; conditions: 7 days, rats
[7] = tested on: injection sites / skin; assay: Necrosis at the injection sites in rats (local skin toxicity)
From the text: The symbol "x" represents a conventional score, that is "x" meand slight necrosis, "xx" means severe necrosis, "xxx" means very severe necrosis.

[8] = Rattus norvegicus, 16 h, read-out: Effect on the production of lactate ± S.E.M.
[9] = Rattus norvegicus, read-out: Effect on the cellular number ± S.E.M.

Compound: O=P(O)(O)C(F)(F)P(=O)(O)O [F2 MBP, difluoromethanebiphosphonic acid]
- product Ca++ × Pi in solution after incubation ([1]; 0.5 μM): 44.6
- product Ca++ × Pi in solution after incubation ([1]; 2.5 μM): 58.5
- product Ca++ × Pi in solution after incubation ([1]; 5.0 μM): 72.0
- inhibitory activity on the formation and growth of crystals of apatite ([1]; in vitro): inhibits the growth in vitro of the crystals of apatite
- LD50 ([2]; ip): 450 mg/kg
- LD50 ([2]; iv): 70 mg/kg
- LD50 ([2]; po, os): > 2000 mg/kg
- effect on the production of lactate, in words [3]: no effect
- activity at 2.5 µM [3, 8]: 112 ± 4.4%
- activity at 25 µM [3, 8]: 106 ± 3.9%
- activity at 250 µM [3, 8]: 99.7 ± 4.7%
- effect on the number of cells, in words [4]: no effect or a very small effect
- activity at 2.5 µM [4, 9]: 88.1 ± 1.4%
- activity at 25 µM [4, 9]: 92.4 ± 1.9%
- activity at 250 µM [4, 9]: 99.3 ± 2%
- effect on mineralization, in words ([5]; 10 mg of P/kg / high dosage where stated): no effect on the bone reabsorption or on the bone mineralization
- effect on bone reabsorption, in words [5]: no effect on the bone reabsorption

Compound: NCCCCC(O)(P(=O)(O)O)P(=O)(O)O [AHPE BP, 5-amino-1-hydroxypentan-1,1-biphosphonic acid]
- metaphysical density ([6]; 0.01 mg P/kg s.c., s.c. NaCl controls 29.72): 37.85 % volume of calcified tissue
- metaphysical density ([6]; 0.1 mg P/kg s.c., s.c. NaCl controls 29.72): 50.44 % volume of calcified tissue
- metaphysical density ([6]; 1.0 mg P/kg s.c., s.c. NaCl controls 29.72): 56.47 % volume of calcified tissue
- metaphysical density ([6]; 2.0 mg P/kg p.o., p.o. NaCl controls 28.45): 38.70 % volume of calcified tissue
- product Ca++ × Pi in solution after incubation ([1]; 0.05 μM): 36.7
- product Ca++ × Pi in solution after incubation ([1]; 0.25 μM): 37.1
- product Ca++ × Pi in solution after incubation ([1]; 0.5 μM): 68.6
- product Ca++ × Pi in solution after incubation ([1]; 2.5 μM): 94.0
- product Ca++ × Pi in solution after incubation ([1]; 5.0 μM): 97.5
- necrosis at the injection sites ([7]; 0.01 mg P/kg, 1 day): .0.
- necrosis at the injection sites ([7]; 0.01 mg P/kg, 2 day): .0.
- necrosis at the injection sites ([7]; 0.01 mg P/kg, 3 day): .0.
- necrosis at the injection sites ([7]; 0.01 mg P/kg, 4 day): .0.
- necrosis at the injection sites ([7]; 0.01 mg P/kg, 5 day): .0.
- necrosis at the injection sites ([7]; 0.01 mg P/kg, 6 day): .0.
- necrosis at the injection sites ([7]; 0.01 mg P/kg, 7 day): .0.
- necrosis at the injection sites ([7]; 0.1 mg P/kg, 1 day): .0.
- necrosis at the injection sites ([7]; 0.1 mg P/kg, 2 day): .0.
- necrosis at the injection sites ([7]; 0.1 mg P/kg, 3 day): .0.
- necrosis at the injection sites ([7]; 0.1 mg P/kg, 4 day): .0.
- necrosis at the injection sites ([7]; 0.1 mg P/kg, 5 day): .0.
- necrosis at the injection sites ([7]; 0.1 mg P/kg, 6 day): .0.
- necrosis at the injection sites ([7]; 0.1 mg P/kg, 7 day): .0.
- necrosis at the injection sites ([7]; 1 mg P/kg, 1 day): .0.
- necrosis at the injection sites ([7]; 1 mg P/kg, 2 day): .0.
- necrosis at the injection sites ([7]; 1 mg P/kg, 3 day): .0.
- necrosis at the injection sites ([7]; 1 mg P/kg, 4 day): .0.
- necrosis at the injection sites ([7]; 1 mg P/kg, 5 day): .0.
- necrosis at the injection sites ([7]; 1 mg P/kg, 6 day): .0.
- necrosis at the injection sites ([7]; 1 mg P/kg, 7 day): .0.
- necrosis at the injection sites ([7]; 10 mg P/kg, 1 day): xxx
- necrosis at the injection sites ([7]; 10 mg P/kg, 2 day): xxx
- LD50 ([2]; ip): 75 mg/kg
- LD50 ([2]; iv): 85 mg/kg
- LD50 ([2]; po, os): 1500 mg/kg
- Effect on the production of lactate ± S.E.M. ([3]; 250 μM): dead cells
- activity at 2.5 µM ([3]; Rattus norvegicus, 16 h, 2.5 μM, read-out: Effect on the production of lactate ± S.E.M.): 93.4 ± 3%
- activity at 25 µM ([3]; Rattus norvegicus, 16 h, 25 μM, read-out: Effect on the production of lactate ± S.E.M.): 354 ± 27.7%
- Effect on the cellular number ± S.E.M. ([4]; 250 μM): dead cells
- activity at 2.5 µM ([4]; Rattus norvegicus, 2.5 μM, read-out: Effect on the cellular number ± S.E.M.): 103 ± 2.8%
- activity at 25 µM ([4]; Rattus norvegicus, 25 μM, read-out: Effect on the cellular number ± S.E.M.): 42.6 ± 5.1%
- effect on bone reabsorption, in words [5]: the most active in inhibiting the bone reabsorption
- toxicity during the bone reabsorption experiment ([5]; s.c., 10 mg of P/kg / higher dosage): Experiment interrupted due to acute toxicity; also recorded: a toxicity at the higher dosage

From patent US4621077A, “Pharmacologically active biphosphonates, process for the preparation thereof and pharmaceutical compositions therefrom” (Istituto Gentili S.p.A., priority 1982, dated 1986)
